Source: patent US20070117770A1, “Human ribosomal DNA (rDNA) and ribosomal RNA (rRNA) nucleic acids and uses thereof” (Cylene Pharmaceuticals, Inc., priority 2005, published 2007)
Entries after “also recorded” stand apart in the source; their conditions may differ.

Columns and labels:
[1] = system: rRNA synthesis, HCT-116; assay: PCR assay of rRNA synthesis from 45S rDNA (5' ETS probe); type: cell-based; conditions: various concentrations; two hour or four hour incubation (FIGS. 4A, 4B)
Experimental: Assays were conducted to determine the effects of compounds on rRNA synthesis from 45S rDNA. In particular, compound A-1 at various concentrations was incubated with cells and tested for an effect on rRNA synthesis after a two hour or four hour incubation with the compound. Synthesized rRNA was quantified by a polymerase chain reaction (PCR) assay. A primer/probe set was designed using Primer Express software and synthesized by Applied Biosystems. The 5′ ETS Probe utilized had the following sequence (@ its 3′ end): 6FAM-TTG ATC CTG CCA GTA GC-MGBNFQ (SEQ ID NO:227). The primer sequences were as follows:
Mix • 1 ug RNA • 2.5 ul 10× Taq Man buffer • 5.5 ul 25 mM MgCl2 • 5 ul of a mix of dNTP (500 uM each) • 1.2 ul random hexamer primer (2.5 uM stock) • 0.5 ul RNase inhibitor (0.4 units/ul) • 0.6 ul Reverse Transcriptase (1.2 units/ul) • bring to 25 ul total volume with water
Mix • 5 ul Reverse Transcriptase reaction product • 12.5 ul 2×PCR mix • 1 uM forward primer • 1 uM reverse primer • 0.5 uM Taq Man probe • 500 nM Rox • Adjust to 25 ul final volume with water
PCR cycles • 95 degrees C. 1 minute • 40 cycles of • 95 degrees C. 15 seconds • 60 degrees C. 1 minute.
Fluorescence of digested label was detected and quantified. […] The effect of other compounds on rRNA synthesis also were assessed in the assay, and provided in the table hereafter are IC50 values of selected compounds pertaining to rRNA synthesis and cMYC RNA synthesis.

[2] = system: A549 cells; assay: Cell localization assay (fluorescence microscope); type: cell-based; conditions: 2 uM, one hour or two hours
Experimental: A cell localization assay was utilized to determine cell localization for compounds that interacted with rRNA. In these studies, A549 cells were plated in borosilicate chamber slides. The cells were treated with 2 uM compound A-1 the next day for one hour or two hours, washed with PBS, fixed for 10 min in 4% paraformaldehyde and observed under a fluorescence microscope (Olympus) in the Ex360 nm/Em548 nm channel at 600× magnification. […] Accordingly, a compound tested in the assay was localized in cell nucleoli.

[3] = system: 28S rRNA and 18S rRNA (total RNA from HCT116 cells); assay: Human rRNA interaction screening assay (agarose gel electrophoresis mobility shift); type: binding; conditions: 1 ug total RNA; 10 uM compound or 0.5 ug/mL PI, 15 min, room temperature
Experimental: RNA was isolated from HCT116 cells (RNeasy kit, QIAGEN) and contacted in vitro with each compound from a library of compounds. In representative assays, 1 ug of total RNA from HCT116 cells was incubated with 0.5 ug/mL of propidium iodide (PI), 10 uM compound A-1 or another compound in the library in a volume of 10 uL for 15 min at room temperature, followed by agarose gel electrophoresis. Fluorescence of the compounds was visualized on each gel. […] Compounds C-1, C-2, C-3, C-4 and C-5 have the following general formula: [drawing 15] [drawing 16]

[4] = molecular target: T1, nucleolin/1196NT (Homo sapiens, UniProt P19338); assay: EMSA, interference with nucleolin/nucleic acid ligand interaction; type: binding; set-up: key to Activity of Compound A-1 (relative interference), ligand 1196NT: +: least interference by compound A-1; ++++: greatest interference by compound A-1
T1 construct: without the N-terminal acidic stretches domain
T1 sequence (P19338 284-710 limits assumed): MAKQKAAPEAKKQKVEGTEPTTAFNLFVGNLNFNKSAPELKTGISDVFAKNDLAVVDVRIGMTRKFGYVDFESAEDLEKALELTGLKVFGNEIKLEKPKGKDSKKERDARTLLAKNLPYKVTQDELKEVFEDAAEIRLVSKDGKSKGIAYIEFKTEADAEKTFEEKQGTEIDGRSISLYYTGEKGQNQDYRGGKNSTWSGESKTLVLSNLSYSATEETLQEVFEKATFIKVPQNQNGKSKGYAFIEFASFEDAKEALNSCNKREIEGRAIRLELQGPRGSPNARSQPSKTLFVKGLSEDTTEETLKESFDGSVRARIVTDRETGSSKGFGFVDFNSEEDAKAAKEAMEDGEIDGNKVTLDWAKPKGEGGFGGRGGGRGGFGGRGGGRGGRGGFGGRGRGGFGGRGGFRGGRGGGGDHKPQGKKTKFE
Experimental: The following assays assessed effects of compounds on interactions between nucleolin and nucleic acid ligands capable of forming quadruplex (QP) and hairpin (HP) secondary structures. Nucleic acid ligands tested were a cMyc QP DNA having nucleotide sequence 5′-[…]-3′ (SEQ ID NO: 176) and a HP pre-rRNA region to which nucleolin binds, having the sequence 5′-[…]-3′ (SEQ ID NO: 177). In the assays, recombinant nucleolin (˜250 nM), which was fused to maltose binding protein and had the sequence under accession number NM_005381 without the N-terminal acidic stretches domain, was incubated with each of the two ^32P-labeled nucleic acid ligands (10 or 250 nM). Nucleolin and the nucleic acid ligand were incubated in the presence or absence of a test compound of Formula A-1, B-1, C-6 or C-7 in an incubation buffer (12.5 mM Tris, pH 7.6, 60 mM KCl, 1 mM MgCl2, 0.1 mM EDTA, 1 mM DTT, 5% glycerol, 0.1 mg/ml BSA) for 30 minutes at room temperature. Structures for A-1 and B-1 are shown above and structures for C-6 and C-7 are shown hereafter: [drawing 17] […]
The assay also was conducted in a filter-binding format. […] Radioactivity was assayed with MicroBeta scintillation counter (Perkin Elmer). Binding curves were constructed and apparent Kd's and Bmax's for the complexes were calculated using the GraphPad Prizm software program (GraphPad Software). […]

Question: Which results are given for CN1CCCC1CCNC(=O)c1cn2c3c(c(N4CCC(c5cnccn5)C4)c(F)cc3c1=O)Oc1cc3ccccc3cc1-2 (centres unmarked) [Compound A-1]?
Answer: effect on rRNA synthesis [1]: inhibited rRNA synthesis at two hours and four hours; cell localization judged by fluorescence intensity [2]: accumulated in the nucleoli, as well as the cytoplasm/perinuclear space; binding to 28S versus 18S rRNA [3]: bound preferentially to 28S rRNA; also recorded: selective binding to 28S over 18S; Activity of Compound A-1 (relative interference), ligand 1196NT [4]: +; IC50 ([4]; ligand 1196NT, read-out: IC50, concentration of Compound A-1 required to dissociate half of the complexed nucleic acid ligand and nucleolin protein): 3 µM
